{
  "source": "patent US6204294A",
  "about": "“IL-8 receptor antagonists” (SmithKline Beecham Corporation, priority 1999, dated 2001)",
  "system": "recombinant human IL-8 type β receptor (IL-8Rβ, Type II, permissive receptor)",
  "experiment": "Receptor binding assay, permissive model (IL-8b), [125I]IL-8 on CHO membranes",
  "settings": "recombinant IL-8Rβ CHO membranes; compound without an ionizable proton in the 2-position",
  "excerpt": "[^125 I]IL-8 (human recombinant) was obtained from Amersham Corp., Arlington Heights, Ill., with specific activity 2000 Ci/mmol. Gro-α was obtained from NEN- New England Nuclear. All other chemicals were of analytical grade. High levels of recombinant human IL-8 type α and β receptors were individually expressed in Chinese hamster ovary cells as described previously (Holmes, et al., Science, 1991, 253, 1278). The Chinese hamster ovary membranes were homogenized according to a previously described protocol (Haour, et al., J Biol Chem., 249 pp 2195-2205 (1974)). Except that the homogenization buffer was changed to 10mM Tris-HCL, 1mM MgS04, 0.5mM EDTA (ethylene-diaminetetra-acetic acid), 1mMPMSF (α-toluenesulphonyl fluoride), 0.5 mg/L Leupeptin, pH 7.5. Membrane protein concentration was determined using Pierce Co. micro-assay kit using bovine serum albumin as a standard. All assays were performed in a 96-well micro plate format. Each reaction mixture contained ^125 I IL-8 (0.25 nM) or ^125 I Gro-α and 0.5 μg/mL of IL-8Rα or 1.0 μg/mL of IL-8Rβ membranes in 20 mM Bis-Trispropane and 0.4 mM Tris HCl buffers, pH 8.0, containing 1.2 mM MgSO4, 0.1 mM EDTA, 25 mM NaCl and 0.03% CHAPS. […] The filter was then dried and counted on the Betaplate liquid scintillation counter. […]",
  "data": [
    {"smiles": "C=CCOc1cc(C#N)ccc1NC(=NC#N)Nc1ccccc1Br", "note": "[N-(2-Allyloxy-4-cyano-phenyl)-N'-(2-bromophenyl)-N\"-cyanoguanidine]", "values": [
      {"measurement": "activity in the permissive model (IL-8b) IL-8 receptor inhibition assay, result in words", "result": "inactive"}
    ]}
  ]
}
